Among the data in paper PMC9569839, “Methionine 274 Is Not the Determining Factor for Selective Inhibition of Histone Deacetylase 8 (HDAC8) by L-Shaped Inhibitors” (International Journal of Molecular Sciences, 2022) are IC50 and antiproliferative effects values, retold here.

SMILES strings stand for the structures. Numbering of substitutions follows the chain as printed. pIC50: −log10 of the molar value. Where two headings read alike, the source gives them in different places. Bounds are passed on as bounds.

Assay [1] has as its system HDAC6. The conditions noted are these: cited from earlier work.
Assay [2] addresses T1, HDAC8M274A (Homo sapiens, UniProt Q9BY41, M274A).
T1 sequence (Q9BY41 1-377 M274A): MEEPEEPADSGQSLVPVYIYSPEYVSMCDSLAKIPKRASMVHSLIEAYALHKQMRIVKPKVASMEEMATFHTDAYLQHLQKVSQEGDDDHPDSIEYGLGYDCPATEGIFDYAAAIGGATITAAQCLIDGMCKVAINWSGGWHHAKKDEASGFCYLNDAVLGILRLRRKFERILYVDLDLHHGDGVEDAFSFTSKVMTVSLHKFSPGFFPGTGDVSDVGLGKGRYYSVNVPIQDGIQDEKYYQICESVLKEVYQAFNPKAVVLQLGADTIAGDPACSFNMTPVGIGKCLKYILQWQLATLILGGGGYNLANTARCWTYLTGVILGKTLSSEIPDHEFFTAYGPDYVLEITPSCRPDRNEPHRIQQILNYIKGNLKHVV
Briefly: Enzyme activity assay, IC50 determination with Boc-Lys(TFA)-AMC.

For assay [3], the system named is HDAC4. The conditions noted are these: cited from earlier work.
Assay [4] relates to HDAC1. The conditions noted are these: cited from earlier work.
Assay [5] has as its system HDAC2. The conditions noted are these: cited from earlier work.
For assay [6], the target named is T2, HDAC8wt (Homo sapiens, UniProt Q9BY41).
T2 sequence (Q9BY41 1-377): T1 sequence (Q9BY41 1-377 M274A) with A274M
Description: Enzyme activity assay, IC50 determination with Boc-Lys(TFA)-AMC.

Assay [7] deals with HDAC3. The conditions noted are these: read-out: IC50 (HDAC3), cited from earlier work.
Assay [8] concerns HDAC8. The conditions noted are these: cited from earlier work.
Assay [9] relates to HDAC10. The conditions noted are these: cited from earlier work.
In assay [10] the test system is several cancer cell lines. More on the design: method as in PMID 22907916. The conditions noted are these: ref [14]; cited from earlier work.
In assay [11] the test system is HDAC11. More on the design: method as in Huang et al. [14]. The conditions noted are these: ref Huang et al. [14]; cited from earlier work.
Setting [12] is: ref Balasubramanian et al. [12].
Setting [13] is: TSA value of Figure 1, source not given.

As usually defined, the pIC50 is the negative decadic logarithm of the IC50, by convention in mol/L. In the case of `O=C(CCCCCCC(=O)Nc1ccccc1)NO` [SAHA, suberoylanilide hydroxamic acid], in assay [1] (setting [12]), the pIC50 was 7.77.

As for `O=C(NO)c1cccc(-c2cn(CSc3ccccc3)nn2)c1` [NCC-149], the negative logarithm of the IC50 (pIC50) was 5.62 in assay [1] (ref Suzuki et al. [13]); 6.52 in [2]; 4.36 in assay [3] (ref Suzuki et al. [13]); 4.42 in assay [4] (ref Suzuki et al. [13]); < 4.00 in [5] (ref Suzuki et al. [13]); 7.40 in [6]. Further, in assay [7] (ref Suzuki et al. [13]), the pIC50 is < 4.17.

Consider `COc1ccc(Cn2ccc3ccc(C(=O)NO)cc32)cc1` [PCI-34051], for which the pIC50 in assay [8] (read-out: IC50-value (HDAC8), introduction text, ref [12],[13]) was […]; in [9] (setting [12]), […]; in assay [5] (setting [12]), […]; in assay [7] (setting [12]), […].

As to `CC(/C=C/C(=O)NO)=C\[C@@H](C)C(=O)c1ccc(N(C)C)cc1` [TSA, trichostatin A], the negative logarithm of the IC50 (pIC50) was 7.77 in [1] (setting [13]); 6.44 in assay [8] (read-out: IC50 (HDAC8), TSA value of Figure 1, source not given); 5.48 in [3] (setting [13]); […] in assay [4] (setting [13]); […] in [5] (setting [13]).

Regarding `COc1ccc(/C=C/C(=O)NO)c(-c2ccc(-c3ccccc3)cc2)c1` [o-ACHA], the pIC50 in assay [1] (ref Huang et al. [14]) was < 4.70; in assay [3] (ref Huang et al. [14]) it was < 4.70; in assay [9] (ref Huang et al. [14]), < 4.70; in assay [4] (ref Huang et al. [14]), 5.52; in assay [5] (ref Huang et al. [14]) it was < 4.70; in assay [11], < 4.70. In addition, the pIC50 in assay [7] (ref Huang et al. [14]) is 5.52. For the same compound, in assay [10], the antiproliferative effects entry is on record as “antiproliferative effects against several cancer cell lines”.
